# Measured values reported in patent publication US5536497A, “Fimbrial polypeptides useful in the prevention of periodontitis” (priority 1992, dated 1996).
# Like-named read-outs stand apart in the source and are kept apart here. Square brackets hold non-standard residues; d marks the D form. Peptide text beside a SMILES is read from it. * marks the point of attachment. Sta = CC(C)C[C@H](N)[C@@H](O)CC(=O)O; Isovaleryl = CC(C)CC(=O)*
# B1: Trypsin, bovine pancreas type XIII-TPCK: trypsin from bovine pancreas, type XIII, TPCK treated (protein, UniProt P00760 24-246, looked up)
# Serine protease 1: IVGGYTCGANTVPYQVSLNSGYHFCGGSLINSQWVVSAAHCYKSGIQVRLGEDNINVVEGNEQFISASKSIVHPSYNSNTLNNDIMLIKLKSAASLNSRVASISLPTSCASAGTQCLISGWGNTKSSGTSYPDVLKCLKAPILSDSSCKSAYPGQITSNMFCAGYLEGGKDSCQGDSGGPVVCSGKLQGIVSWGSGCAQKNKPGVYTKVCNYVSWIKQTIASN
# modifications: TPCK treated
# Tested on: P. gingivalis 2561 binding to sHAP beads
# Assay: microbe, parasite or virus in culture
# Type: cell-based, Porphyromonas gingivalis
# [1] = Table 2, amount 0.1 mg, minus = enhancement of binding
molecule,measurement,setting,value
CC(C)CC(=O)N[C@H](C(=O)N[C@H](C(=O)N[C@@H](CC(C)C)[C@@H](O)CC(=O)N[C@@H](C)C(=O)N[C@@H](CC(C)C)[C@@H](O)CC(=O)O)C(C)C)C(C)C [Pepstatin] (Isovaleryl-VV[Sta]A[Sta]-OH),inhibition at 1 µM,Porphyromonas gingivalis,-10%
O=C[C@@H](O)[C@@H](O)[C@H](O)[C@H](O)CO [Mannose],Inhibition (%),[1],-15%
N[C@H]1C(O)O[C@H](CO)[C@@H](O)[C@@H]1O (some centres unmarked) [Glucosamine],Inhibition (%),[1],0%
O=C(O)CN(CCN(CC(=O)O)CC(=O)O)CC(=O)O [EDTA],Inhibition (%),,24
O=C[C@H](O)[C@@H](O)[C@@H](O)[C@H](O)CO [Galactose],Inhibition (%),[1],-7%
N-Acetyl neuramin-lactose,Inhibition (%),[1],2%
"poly-2,8-N-acetyl neuraminic acid",Inhibition (%),[1],13%
"CC(=O)N[C@H]1[C@H]([C@H](O)[C@H](O)CO)OC(O)(C(=O)O)C[C@@H]1O (some centres unmarked) [Sialic acid (N-acetyl neuraminic acid), N-acetyl neuraminic acid]",Inhibition (%),[1],28%
NCCCC[C@H](N)C(=O)O [L-Lysine],Inhibition (%),[1],5%
OC[C@H]1O[C@@H](O[C@H]2[C@H](O)[C@@H](O)C(O)O[C@@H]2CO)[C@H](O)[C@@H](O)[C@H]1O (some centres unmarked) [Lactose],Inhibition (%),[1],-1%
O=C[C@H](O)[C@@H](O)[C@H](O)[C@H](O)C(=O)O [D-Glucuronic acid],Inhibition (%),[1],33%
C[C@H](O)[C@@H](O)[C@@H](O)[C@H](O)C=O [Fucose],Inhibition (%),[1],1%
O=C[C@H](O)[C@@H](O)[C@@H](O)[C@H](O)C(=O)O [D-Galacturonic acid],Inhibition (%),[1],21%
Poly-L-lysine,Inhibition (%),"Table 2, amount 0.25 mg",41%
CC(=O)N[C@H]1C(O)O[C@H](CO)[C@@H](O)[C@@H]1O (some centres unmarked) [N-Acetylglucosamine],Inhibition (%),[1],-15%
N[C@H]1C(O)O[C@H](CO)[C@H](O)[C@@H]1O (some centres unmarked) [Galactosamine],Inhibition (%),[1],8%
O=S(=O)(F)Cc1ccccc1 [Phenylmethylsulfonyl fluoride],Inhibition (%),"Table 2, conc. 2 mM",13%
OC[C@H]1O[C@H](O[C@H]2[C@H](O)[C@@H](O)[C@H](O)O[C@@H]2CO)[C@H](O)[C@@H](O)[C@@H]1O [Maltose],Inhibition (%),[1],-8%
N=C(N)NCCC[C@H](N)C(=O)O [L-Arginine],Inhibition (%),[1],0%
CC(=O)N[C@H]1C(O)O[C@H](CO)[C@H](O)[C@@H]1O (some centres unmarked) [N-Acetylgalactosamine],Inhibition (%),[1],-5%
"c1cnc2c(c1)ccc1cccnc12 [1,10-Phenanthroline]",inhibition at 1000 µM,Porphyromonas gingivalis,-8%
"Defatted BSA: defatted BSA, agent tested in Table 2",Inhibition (%),"Table 2, amount l mg",43%
CC(=O)N[C@@H](CC(C)C)C(=O)N[C@@H](CC(C)C)C(=O)N[C@H](C=O)CCCNC(=N)N [Leupeptin],inhibition at 2 µM,Porphyromonas gingivalis,19%
O=C[C@H](O)[C@@H](O)[C@H](O)[C@H](O)CO [Glucose],Inhibition (%),[1],-10%
B1,Inhibition (%),"Table 2, amount 100 U",53%
same,Reduction of P. gingivalis binding after pretreatment of sHAP beads,sHAP beads pretreated with enzyme prior to being mixed with P. gingivalis cells,approximately 50%
